Laboratory results: patent publication US7442501B2, “SQV nucleic acids and polypeptides” (Massachusetts Institute of Technology, priority 2002, dated 2008)

What was measured:
chondroitin synthase [1] = biological target: T1, chondroitin synthase (Caenorhabditis elegans, UniProt Q7Z1Z1); test: GalNAcT (N-acetylgalactosamyl transferase) assay of chondroitin synthase activity in worm protein extracts; format: biochemical
T1 construct: wild-type (N2) animals were used to prepare worm protein extracts; from tissue; host or cells: whole C. elegans hermaphrodites (young adults), sonicated protein extract
T1 sequence (Q7Z1Z1 1-736): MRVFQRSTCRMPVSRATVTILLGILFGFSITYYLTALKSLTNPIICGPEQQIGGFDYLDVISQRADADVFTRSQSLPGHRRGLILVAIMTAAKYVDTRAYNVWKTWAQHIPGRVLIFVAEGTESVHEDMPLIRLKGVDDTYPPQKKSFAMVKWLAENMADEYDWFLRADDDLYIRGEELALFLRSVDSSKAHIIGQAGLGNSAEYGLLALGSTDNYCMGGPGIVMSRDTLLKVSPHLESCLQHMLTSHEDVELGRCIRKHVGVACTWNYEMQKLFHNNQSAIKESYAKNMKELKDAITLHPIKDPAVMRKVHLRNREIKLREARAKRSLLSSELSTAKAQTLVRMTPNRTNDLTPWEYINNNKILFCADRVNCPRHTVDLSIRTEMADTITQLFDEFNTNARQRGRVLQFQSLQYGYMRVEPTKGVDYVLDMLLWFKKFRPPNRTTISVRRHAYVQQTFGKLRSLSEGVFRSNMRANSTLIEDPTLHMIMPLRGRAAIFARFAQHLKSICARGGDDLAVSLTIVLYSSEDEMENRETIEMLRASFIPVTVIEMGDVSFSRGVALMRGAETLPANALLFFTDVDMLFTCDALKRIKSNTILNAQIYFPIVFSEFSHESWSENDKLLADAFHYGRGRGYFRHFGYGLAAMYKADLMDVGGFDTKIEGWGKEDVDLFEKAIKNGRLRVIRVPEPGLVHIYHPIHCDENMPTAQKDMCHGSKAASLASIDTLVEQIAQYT
Method: (§1) sqv-5(n3611), sqv-5(n3611)/hT2, and wild-type (N2) animals were used to prepare worm protein extracts. These extracts were tested for chondroitin synthase activity using standard methods, for example, in DeAngelis et al., (J. Biol. Chem. 27:24124-24129, 2000).
(§2) A desulfated chondroitin acceptor was used for the GalNAcT (N-acetylgalactosamyl transferase) assay. Desulfated and β-glucuronidase-treated chondroitin acceptor was used for the GlcAT (glucuronyl transferase) assay.
(§3) The enzymatic activity of SQV-5 was assayed as follows. SQV-5(n3611), sqv-5(n3611)/hT2, and wild-type N2 hermaphrodites were picked as L4 larvae by visual examination of the vulva using a dissecting microscope. The worms staged were allowed to grow for an additional twenty-three to twenty-seven hours at 22° C., re-examined, then transferred to 1.7-ml plastic tubes containing sterile water. The staged worms were washed once with water and twice with 50 mM Tris, pH 7.5, then frozen in a 50 μl volume using liquid nitrogen, and stored at −70° C.
(§4) Worm extracts were assayed for GIcAT glucoronosyltransferase activity by combining 1.3×10^5 cpm UDP-^3H-glucuronic acid donor (NEN), 6 μg β-glucuronidase-treated chondroitin acceptor, and 2.7 μg worm extract in a 25 μl reaction volume containing 0.05% Triton X-100, 10 mM MnCl2, and 100 μM ATP, pH 6.5. GalNAcT activity was detected by combining 1.3 to 3×10^5 cpm UDP-^3H-GalNAc donor (NEN), 12 μg chondroitin acceptor, and 6.7 μg worm extract in a 25 μl reaction volume containing 0.05% Triton X-100 and 10 mM MnCl2, pH 6.5. […] Pelleted material was resuspended in water and counted by liquid scintillation.
(§5) The chondroitin acceptor used was prepared as follows. […] Uronic acid concentration of both preparations was determined by the Carbazole method (Bitter, et al., Anal. Biochem. 4:330-334, 1962).

chondroitin synthase [2] = test: as above; format: biochemical; settings: extract genotype sqv-5/sqv-5 (sqv-5(n3611))
Method: as §1, §2, §3, §4, §5

In the case of CC(=O)N[C@H]1[C@@H](OP(=O)(O)OP(=O)(O)OC[C@H]2O[C@@H](n3ccc(=O)[nH]c3=O)[C@H](O)[C@@H]2O)O[C@H](CO)[C@H](O)[C@@H]1O [UDP-N-acetylgalactosamine], the CPM (chondroitin synthase [1]; extract genotype +/+ (wild-type)) is reported as 171 CPM, the CPM (chondroitin synthase [1]; extract genotype +/sqv-5 (sqv-5(n3611)/hT2)) is reported as 134 CPM and the CPM (chondroitin synthase [2]) is reported as <0 CPM.
